Data as given in patent US10669258B2, “3-sulfonyl-5-aminopyridine-2,4-diol APJ agonists” (BRISTOL-MYERS SQUIBB COMPANY, priority 2016, dated 2020).
Where two headings read alike, the source gives them in different places.

Molecular target: T1, human APJ receptor (Homo sapiens, UniProt P35414)
T1 construct: expressed in transfected cells; host or cells: HEK293
T1 sequence (P35414 1-380): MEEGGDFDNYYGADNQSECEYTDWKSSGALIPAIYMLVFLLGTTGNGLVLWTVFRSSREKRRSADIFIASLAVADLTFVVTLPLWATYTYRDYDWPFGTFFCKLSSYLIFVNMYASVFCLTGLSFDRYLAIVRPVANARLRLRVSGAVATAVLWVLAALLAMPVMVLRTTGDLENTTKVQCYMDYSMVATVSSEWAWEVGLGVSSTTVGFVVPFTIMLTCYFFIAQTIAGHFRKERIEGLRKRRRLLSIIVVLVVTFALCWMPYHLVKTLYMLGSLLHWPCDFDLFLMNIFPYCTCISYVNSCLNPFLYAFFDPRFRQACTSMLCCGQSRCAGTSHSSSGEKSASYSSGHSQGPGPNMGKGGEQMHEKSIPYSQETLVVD
Assay: Intracellular cAMP accumulation assay (APJ hcAMP, HTRF)
Assay type: cell-based
Details: HEK293 cells stably expressing human APJ receptor, inhibition of forskolin-mediated cAMP production
Procedure: Intracellular cAMP Accumulation Assay
HEK293 cells stably expressing human APJ receptor were used to assess the activity of compounds. Cultured cells were detached and resuspended in the cAMP Homogeneous Time-Resolved Fluorescence (HTRF) assay buffer (Cisbio cat; #62AM4PEJ). The assay was performed in 384-well assay plates (Perkin-Elmer; cat #6008289) according to assay protocol provided by the manufacturer. Serial dilutions of a compound together with assay buffer containing […] IBMX and 2 μM forskolin were added to each well containing 5,000 cells and incubated for 30 minutes at room temperature. Subsequently, cAMP D2 reagent was added in the lysis buffer followed by the EuK antibody (Cisbio; cat #62AM4PEJ) and incubated for 60 min. The fluorescence emission ratio was measured using fluorometer. The intracellular cAMP concentrations (compound-stimulated inhibition of forskolin-mediated cAMP production) were calculated by extrapolation from a standard curve using known cAMP concentrations. The EC50 values were obtained by fitting the data to a sigmoidal concentration-response curve with variable slope. The maximal achievable inhibition of forskolin-induced cAMP levels (Ymax) for each compound was expressed as relative percentage of inhibition attained using pyroglutamated apelin-13 ((Pyr1)apelin-13) peptide, which was set to 100%.
The examples disclosed below were tested in the APJ in vitro assays described above and were found having human APJ cyclic AMP (hcAMP) activity. The EC50 value of each compound is presented at the end of the example description.
The biological activity of the exemplified compounds of this invention determined by the assay described above is shown at the end of each example.

[1] = read-out: Human APJ cAMP Potency range
[2] = Table 1, read-out: hAPJ cAMP EC50 Potency range
[3] = hAPJ cAMP EC50 Potency range, Table 1

CCN(c1ccccc1)c1c(-c2ccn(C)n2)nc(O)c(C(=O)N2CCC(c3ccc(Cl)cn3)C2)c1O (single isomer, unassigned) [Example 199, (3-(5-chloropyridin-2-yl)pyrrolidin-1-yl)(5-(ethyl(phenyl)amino)-2,4-dihydroxy-6-(1-methyl-1H-pyrazol-3-yl)pyridin-3-yl)methanone] gave an EC50 [1] of 0.01 to 10 nM.
With CCCCc1nc(O)c(S(=O)(=O)c2ccc(-c3ccnc(F)c3C)cc2)c(O)c1N1c2ccccc2CCC1C (stereo not shown) [167-I, 6-butyl-3-((4-(2-fluoro-3-methylpyridin-4-yl)phenyl)sulfonyl)-5-(2-methyl-3,4-dihydroquinolin-1(2H)-yl)pyridine-2,4-diol] the EC50 [2] was 0.01 to 10 nM.
CCCCc1nc(O)c(S(=O)(=O)c2ccc(-c3ccnc(F)c3C)cc2)c(O)c1N(C)c1cccc(C#N)c1 [AB-005, 3-((2-butyl-5-((4-(2-fluoro-3-methylpyridin-4-yl)phenyl)sulfonyl)-4,6-dihydroxypyridin-3-yl)(methyl)amino)benzonitrile] was tested, and the EC50 [1] was 0.01 to 10 nM.
CCCCc1nc(O)c(C(=O)N2CC[C@@H](c3ccccc3)C2)c(O)c1N(CC)c1ccccc1 [Example 001, (S)-(6-butyl-5-(ethyl(phenyl)amino)-2,4-dihydroxypyridin-3-yl)(3-phenylpyrrolidin-1-yl)methanone] showed an EC50 (Human APJ cAMP Potency range) of 10 to 100 nM.
CCCCc1nc(O)c(S(=O)(=O)c2ccc(-c3ccc(F)nc3)cc2)c(O)c1N(CC)c1ccccc1 [Example 002, 6-butyl-5-(ethyl(phenyl)amino)-3-((4-(6-fluoropyridin-3-yl)phenyl)sulfonyl)pyridine-2,4-diol] gave an EC50 [1] of 0.01 to 10 nM.
For CCCCc1nc(O)c(S(=O)(=O)c2ccc(-n3cc(C)ccc3=O)cc2)c(O)c1N(CC)c1ccccc1 [Example 003, 1-(4-((6-butyl-5-(ethyl(phenyl)amino)-2,4-dihydroxypyridin-3-yl)sulfonyl)phenyl)-5-methylpyridin-2(1H)-one], the EC50 [1] was 0.01 to 10 nM.
CCCCc1nc(O)c(S(=O)(=O)c2ccc(C3CC3)cc2)c(O)c1N(CC)c1ccccc1 [Example 004, 6-butyl-3-((4-cyclopropylphenyl)sulfonyl)-5-(ethyl(phenyl)amino)pyridine-2,4-diol] gave an EC50 [1] of 0.01 to 10 nM.
Compound CCCCc1nc(O)c(C(=O)N2CCC(c3ncc(F)cc3F)C2)c(O)c1N(C)c1ccccc1F (stereo not shown) [Example 006, (6-butyl-5-((2-fluorophenyl)(methyl)amino)-2,4-dihydroxypyridin-3-yl)(3-(3,5-difluoropyridin-2-yl)pyrrolidin-1-yl)methanone] has an EC50 [1] of 0.01 to 10 nM.
CCCCc1nc(O)c(C(=O)N2CC[C@@H](c3ccccc3)C2)c(O)c1N(C)c1ccccc1 [Example 007, (S)-(6-butyl-2,4-dihydroxy-5-(methyl(phenyl)amino)pyridin-3-yl)(3-phenylpyrrolidin-1-yl)methanone] was tested, and the EC50 [3] was 10 to 100 nM.
For CCCCc1nc(O)c(C(=O)N2CC[C@H](c3ccccc3)C2)c(O)c1N(C)c1ccccc1 [Example 008, (R)-(6-butyl-2,4-dihydroxy-5-(methyl(phenyl)amino)pyridin-3-yl)(3-phenylpyrrolidin-1-yl)methanone], the EC50 [3] was 10 to 100 nM.
For CCCCc1nc(O)c(C(=O)N2CC[C@H](c3ccccc3)C2)c(O)c1N1CCc2ccccc21 [Example 009, (R)-(6-butyl-2,4-dihydroxy-5-(indolin-1-yl)pyridin-3-yl)(3-phenylpyrrolidin-1-yl)methanone], the EC50 [3] was 10 to 100 nM.
CCCCc1nc(O)c(S(=O)(=O)c2ccc(Br)cc2)c(O)c1N(C)c1ccccc1 [Example 010, 3-((4-bromophenyl)sulfonyl)-6-butyl-5-(methyl(phenyl)amino)pyridine-2,4-diol] was tested, and the EC50 [2] was 10 to 100 nM.
Work on CCCCc1nc(O)c(S(=O)(=O)c2ccc(-c3ccnc(F)c3C)cc2)c(O)c1N(C)c1ccccc1 [Example 011, 6-butyl-3-((4-(2-fluoro-3-methylpyridin-4-yl)phenyl)sulfonyl)-5-(methyl(phenyl)amino)pyridine-2,4-diol] yielded an EC50 [2] of 0.01 to 10 nM.
CCCCc1nc(O)c(S(=O)(=O)c2ccc(-c3ccc(F)nc3)cc2)c(O)c1N(C)c1ccccc1 [Example 012, 6-butyl-3-((4-(6-fluoropyridin-3-yl)phenyl)sulfonyl)-5-(methyl(phenyl)amino)pyridine-2,4-diol] gave an EC50 [2] of 0.01 to 10 nM.
For CCCCc1nc(O)c(S(=O)(=O)c2ccc(-c3ccncc3C)cc2)c(O)c1N1CCc2ccccc21 [Example 013, 6-butyl-5-(indolin-1-yl)-3-((4-(3-methylpyridin-4-yl)phenyl)sulfonyl)pyridine-2,4-diol], the EC50 [2] was 0.01 to 10 nM.
Work on CCCCc1nc(O)c(S(=O)(=O)c2ccc(-c3ccncc3C)cc2)c(O)c1N(C)c1ccccc1 [Example 014, 6-butyl-5-(methyl(phenyl)amino)-3-((4-(3-methylpyridin-4-yl)phenyl)sulfonyl)pyridine-2,4-diol] yielded an EC50 [2] of 0.01 to 10 nM.
CCCCc1nc(O)c(S(=O)(=O)c2ccc(-c3ccc(F)nc3C)cc2)c(O)c1N(C)c1ccccc1 [Example 015, 6-butyl-3-((4-(6-fluoro-2-methylpyridin-3-yl)phenyl)sulfonyl)-5-(methyl(phenyl)amino)pyridine-2,4-diol] showed an EC50 [2] of 0.01 to 10 nM.
In the case of CCCCc1nc(O)c(S(=O)(=O)c2ccc(C3CC3)cc2)c(O)c1N(C)c1ccccc1 [Example 016, 6-butyl-3-((4-cyclopropylphenyl)sulfonyl)-5-(methyl(phenyl)amino)pyridine-2,4-diol], the EC50 [2] is reported as 0.01 to 10 nM.
With CCCCc1nc(O)c(S(=O)(=O)c2ccc(-c3cccnc3C)cc2)c(O)c1N(C)c1ccccc1 [Example 017, 6-butyl-5-(methyl(phenyl)amino)-3-((4-(2-methylpyridin-3-yl)phenyl)sulfonyl)pyridine-2,4-diol] the EC50 [2] was 0.01 to 10 nM.
In the case of CCCCc1nc(O)c(S(=O)(=O)c2ccc(-n3cc(Cl)ccc3=O)cc2)c(O)c1N(C)c1ccccc1 [Example 018, 1-(4-((6-butyl-2,4-dihydroxy-5-(methyl(phenyl)amino)pyridin-3-yl)sulfonyl)phenyl)-5-chloropyridin-2(1H)-one], the EC50 [2] is reported as 0.01 to 10 nM.
CCCCc1nc(O)c(C(=O)N2CC[C@@H](c3ccccc3)C2)c(O)c1N1CCCc2ccccc21 [Example 019, (S)-(6-butyl-5-(3,4-dihydroquinolin-1(2H)-yl)-2,4-dihydroxypyridin-3-yl)(3-phenylpyrrolidin-1-yl)methanone] gave an EC50 [3] of 10 to 100 nM.
In the case of CCCCc1nc(O)c(S(=O)(=O)c2ccc(-c3ccnc(F)c3C)cc2)c(O)c1N(c1ccccc1)C(C)C [Example 020], the EC50 [2] is reported as 0.01 to 10 nM.
Compound CCCCc1nc(O)c(S(=O)(=O)c2ccc(-c3ccc(F)nc3C)cc2)c(O)c1N1CCCc2ccccc21 [Example 021, 6-butyl-5-(3,4-dihydroquinolin-1(2H)-yl)-3-((4-(6-fluoro-2-methylpyridin-3-yl)phenyl)sulfonyl)pyridine-2,4-diol] has an EC50 [2] of 0.01 to 10 nM.
In the case of CCCCc1nc(O)c(S(=O)(=O)c2ccc(-c3ccncc3C)cc2)c(O)c1N1CCCc2ccccc21 [Example 022, 6-butyl-5-(3,4-dihydroquinolin-1(2H)-yl)-3-((4-(3-methylpyridin-4-yl)phenyl)sulfonyl)pyridine-2,4-diol], the EC50 [2] is reported as 0.01 to 10 nM.
In the case of CCCCc1nc(O)c(C(=O)N2CC[C@H](c3ccccc3)C2)c(O)c1N(c1ccccc1)C(C)C [Example 023, (R)-(6-butyl-2,4-dihydroxy-5-(isopropyl(phenyl)amino)pyridin-3-yl)(3-phenylpyrrolidin-1-yl)methanone], the EC50 [3] is reported as 10 to 100 nM.
